Paper PMC11714206, “Massively Parallel Screening of Toll/Interleukin‐1 Receptor (TIR)‐Derived Peptides Reveals Multiple Toll‐Like Receptors (TLRs)‐Targeting Immunomodulatory Peptides” (Advanced Science, 2024)
Blank lines part the entries; values can stand above or below the sequence they belong to.

Target: T1, MAL^TIR (Homo sapiens, UniProt P58753)
T1 construct: MAL (residues 79–221); 6xHis; made in house; host or cells: E. coli BL21 (DE3)
Assay: T‐Surf phage library (P8 and P3) selection against MAL^TIR, four rounds, NGS read counts
Format: binding
Details: for P3_MAL Rank (after) / P3_MAL Rank (before): P3 library; for Population: 4th round of selection against MAL TIR, share of NGS reads; for P8_MAL Rank (after) / P8_MAL Rank (before): P8 library
Outline: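 Read counts come from NGS of phage pools after the fourth selection round, barcoded by 20-cycle PCR and filtered for quality ≥30. Each round: phage incubated 1 h at RT on immobilised TIR protein (5 µg mL^−1, BSA-blocked), washed, HCl-eluted and amplified in E. coli TG1.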

[1] = P8_MAL: rank by count after grouping
[2] = P8_MAL: rank by count before grouping
[3] = 4R selection against MAL, rank after grouping
[4] = 4R selection against MAL, rank before grouping
[5] = P3_MAL: rank by count after grouping
[6] = P3_MAL: rank by count before grouping
[7] = P8_MAL pool: P8 T-Surf phage library
[8] = selection against MAL, rank by count after grouping
[9] = selection against MAL, rank by count before grouping
[10] = selection against MAL, rank after grouping
[11] = selection against MAL, rank before grouping
[12] = P3_MAL pool: P3 T-Surf phage library
[13] = selection against MAL TIR, rank by count after grouping
[14] = selection against MAL TIR, rank by count before grouping

T1 sequence (P58753 79-221): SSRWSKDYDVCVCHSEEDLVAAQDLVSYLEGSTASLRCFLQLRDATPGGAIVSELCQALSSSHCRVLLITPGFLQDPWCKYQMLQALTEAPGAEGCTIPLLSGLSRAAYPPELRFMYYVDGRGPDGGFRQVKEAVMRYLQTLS

Rank (after) [1]: 468
Rank (before) [2]: 1823
Sequence: AFLYTFLVNLTHPTMF

P3_MAL Rank (after) [3]: 633
P3_MAL Rank (before) [4]: 3244
Sequence: TSHLHHAMRLNKIDTF

Rank (after) [5]: 447
Rank (before) [6]: 1216
Sequence: CLLKWKEALHQFHSGV

Population [7]: 0.00309%
Sequence: WFYERLVSLILRNTKV

Rank (after) [1]: 477
Rank (before) [2]: 1713
Sequence: AFFWEKLRTVLGRPTM

P8_MAL Rank (after) [3]: 607
P8_MAL Rank (before) [4]: 1280
Sequence: WFYERLVRLILRDNKV

P3_MAL Rank (after) [8]: 692
P3_MAL Rank (before) [9]: 2803
Sequence: HLLKKPRNKRISPFIA

Population [7]: 0.00309%
Sequence: AFLYTFLINPTHPTNF

Rank (after) [5]: 457
Rank (before) [6]: 2263
Sequence: LKVESWRRAPEKAGKL

P3_MAL Rank (after) [10]: 521
P3_MAL Rank (before) [11]: 2572
Sequence: RHHRGPLGSDLQYHME

Population [12]: 0.00451%
Rank (after) [1]: 115
Rank (before) [2]: 655
Sequence: RLLKWKEALHQFHSWV

P3_MAL Rank (after) [8]: 709
P3_MAL Rank (before) [9]: 1219
Sequence: WFFPETGKIFEARKTI

P8_MAL Rank (after) [3]: 588
P8_MAL Rank (before) [4]: 2579
Sequence: TFLGHLYNALVQAGIRAFL

P3_MAL Rank (after) [8]: 733
P3_MAL Rank (before) [9]: 2370
Sequence: RGFLSHLRHHLQVKEQ

Population [12]: 0.00338%
Sequence: YAFTGHLHRYLVQCGV

Rank (after) [5]: 427
Rank (before) [6]: 1347
Sequence: YAFSGHLLHDLVLIRE

Rank (after) [1]: 436
Rank (before) [2]: 2724
Sequence: KLFQQWIELHLHQLHL

P3_MAL Rank (after) [13]: 282
P3_MAL Rank (before) [14]: 3379
Sequence: NQWRNALTAAANLSDR

P3_MAL Rank (after) [3]: 627
P3_MAL Rank (before) [4]: 1687
Sequence: VEQTQVRKPSGAVENA

P3_MAL Rank (after) [3]: 600
P3_MAL Rank (before) [4]: 3631
Sequence: KLQEWRDALTAAANLSGW

P3_MAL Rank (after) [3]: 592
P3_MAL Rank (before) [4]: 1481
Sequence: YAFTSSLHRYLVQRGV

Rank (after) [1]: 471
Rank (before) [2]: 1796
Sequence: AFLWAYLNSVTHPPTF

Rank (after) [5]: 180
Rank (before) [6]: 2553
Sequence: RLMKWKEALHPFHSWV

P3_MAL Rank (after) [8]: 749
P3_MAL Rank (before) [9]: 1758
Sequence: GGFLSHLFDAFSVSR

Rank (after) [5]: 422
Rank (before) [6]: 2140
Sequence: LQNQWRNALTAAANLSGW

Population [7]: 0.0034%
Sequence: AFLYTFPINLTHPTNF

P8_MAL Rank (after) [3]: 634
P8_MAL Rank (before) [4]: 1183
Sequence: WFYERLVSLIMRDNIV

P8_MAL Rank (after) [10]: 496
P8_MAL Rank (before) [11]: 1104
Sequence: LFYERLVSLILRDTRG

P3_MAL Rank (after) [13]: 272
P3_MAL Rank (before) [14]: 1578
Sequence: YNFISHLYDTLHRNRN

P8_MAL Rank (after) [3]: 658
P8_MAL Rank (before) [4]: 2245
Sequence: RNLVAYQFQALPNKGI

P8_MAL Rank (after) [3]: 582
P8_MAL Rank (before) [4]: 1890
Sequence: AFLYNFFNDLTHPTIY

P3_MAL Rank (after) [10]: 548
P3_MAL Rank (before) [11]: 2403
Sequence: RGFLNQLRQHLHAKDH

Population [7]: 0.0034%
Sequence: AFLYTFLINRTHPTNF

P8_MAL Rank (after) [10]: 513
P8_MAL Rank (before) [11]: 2073
Sequence: LFFWEHLKQLLRNDGR

Rank (after) [5]: 166
Rank (before) [6]: 709
Sequence: FMSHLRHHLQAKDH

P3_MAL Rank (after) [10]: 490
P3_MAL Rank (before) [11]: 2102
Sequence: LVAHEISKKMKIFCDH

Rank (after) [5]: 146
Rank (before) [6]: 3327
Sequence: NQCRNALTAAANLKGW

P3_MAL Rank (after) [13]: 267
P3_MAL Rank (before) [14]: 3324
Sequence: NQLRTALTAAANLSGW

Population [12]: 0.00902%
Rank (after) [5]: 103
Rank (before) [6]: 111
Sequence: RGFREGLWRLLELSKK

Rank (after) [1]: 149
Rank (before) [2]: 1951
Sequence: AYLNTFLINLTHPTNF

P3_MAL Rank (after) [10]: 546
P3_MAL Rank (before) [11]: 1200
Sequence: FMSHLYRYLVQRGV

Rank (after) [1]: 119
Rank (before) [2]: 1249
Sequence: WFYERLLSRILRDTKV

Rank (after) [1]: 476
Rank (before) [2]: 1140
Sequence: WFYDRLVSLFLRDPKV

P3_MAL Rank (after) [3]: 583
P3_MAL Rank (before) [4]: 1500
Sequence: YLKLGYPWCWDRRRFA

P3_MAL Rank (after) [13]: 286
P3_MAL Rank (before) [14]: 3349
Sequence: NQWRNALPAAANLRGW

P3_MAL Rank (after) [8]: 752
P3_MAL Rank (before) [9]: 1404
Sequence: YAFTGHLHRYLVQRKQI

P8_MAL Rank (after) [3]: 591
P8_MAL Rank (before) [4]: 2191
Sequence: RNFVAYLFQALAKKGS

P3_MAL Rank (after) [10]: 570
P3_MAL Rank (before) [11]: 1688
Sequence: VLQNFISHPYDFLARK

P3_MAL Rank (after) [10]: 515
P3_MAL Rank (before) [11]: 3176
Sequence: SSFREGLRRMLELTKI

P3_MAL Rank (after) [8]: 737
P3_MAL Rank (before) [9]: 2549
Sequence: RLQECKEALHQFHSWV

P8_MAL Rank (after) [13]: 246
P8_MAL Rank (before) [14]: 2346
Sequence: QLIQPWMELHLHQLHL
